# From ChEMBL document CHEMBL5543174, “A Nonbactericidal Anionic Antimicrobial Peptide Provides Prophylactic and Therapeutic Efficacies against Bacterial Infections in Mice by Immunomodulatory-Antithrombotic Duality” (J Med Chem, 2024)
# Calls of active or inactive are those of the source. The calls are words filed in the database; no cut-off is given here.
# How the values were obtained:
# Mus musculus [1] = experiment: Anticoagulation activity in mouse infected with Carbapenem-resistant Escherichia coli assessed as increase in plasma APC expression at 10 mg/kg,ip pre-administrated 5 hrs before bacterial infection measured after 24 hrs by ELISA; type: functional, organism-based; conditions: time 29.0 hrs
# Staphylococcus aureus [2] = experiment: Antibacterial activity against Staphylococcus aureus ATCC 25923 infected in C57BL/6 mouse assessed as increase in survival rate at 10 mg/kg,ip pre-administrated 5 hrs before bacterial infection measured after 7 days; type: functional, organism-based; conditions: time 7.0 day
# Staphylococcus aureus [3] = experiment: Antibacterial activity against Methicillin-resistant Staphylococcus aureus infected in C57BL/6 mouse with clodronate liposome-induced monocyte depletion model assessed as reduction of bacterial burden in peritoneal cavity at 10 mg/kg,ip pre-administrated 5 hrs before bacterial infection measured after 24 hrs; type: functional, organism-based; conditions: time 29.0 hrs
# Staphylococcus aureus [4] = experiment: Antibacterial activity against Methicillin-resistant Staphylococcus aureus infected in C57BL/6 mouse assessed as reduction in IL-1beta level in serum at 10 mg/kg,ip pre-administrated 5 hrs before bacterial infection measured after 24 hrs by ELISA; type: functional, organism-based; conditions: time 29.0 hrs
# Neutrophil [5] = experiment: Induction of degranulation in mouse bone marrow derived neutrophil assessed as increase in CRAMP release at 25 to 100 ug/ml incubated for 6 hrs by ELISA; type: functional, cell-based; conditions: dose 25-100 µg/ml
# Mus musculus [6] = experiment: Anticoagulation activity in mouse infected with Carbapenem-resistant Escherichia coli assessed as increase in plasma AT-III expression at 10 mg/kg,ip pre-administrated 5 hrs before bacterial infection measured after 24 hrs by ELISA; type: functional, organism-based; conditions: time 29.0 hrs
# [7] = test system: Peritoneal macrophage cell; experiment: Induction of chemotaxis in mouse Peritoneal macrophage assessed as increase in macrophage migration at 100 ug/ml preincubated with PTX for 30 mins followed by compound addition measured after 8 hrs by crystal violet staining based indirect transwell assay; type: functional, cell-based; conditions: dose 100.0 µg/ml
# [8] = test system: Peritoneal macrophage cell; experiment: Induction of chemotaxis in mouse Peritoneal macrophage assessed as upregulation of IL-1beta expression at 25 to 100 ug/ml incubated for 6 hrs by ELISA; type: functional, cell-based; conditions: dose 25-100 µg/ml
# Peritoneal macrophage [9] = experiment: Induction of chemotaxis in mouse Peritoneal macrophage assessed as upregulation of IL-6 expression at 25 to 100 ug/ml incubated for 6 hrs by ELISA; type: functional, cell-based; conditions: dose 25-100 µg/ml
# Staphylococcus aureus [10] = experiment: Antibacterial activity against Staphylococcus aureus ATCC 25923 infected in C57BL/6 mouse assessed as reduction in TNF-alpha level in serum at 10 mg/kg,ip administrated 5 hrs after bacterial infection measured after 24 hrs by ELISA; type: functional, organism-based; conditions: time 19.0 hrs
# Escherichia coli [11] = experiment: Antibacterial activity against Carbapenem-resistant Escherichia coli infected in C57BL/6 mouse with clodronate liposome-induced monocyte depletion model assessed as decrease in bacterial burden in peritoneal cavity at 10 mg/kg,ip pre-administrated 5 hrs before bacterial infection measured after 24 hrs; type: functional, organism-based; conditions: time 29.0 hrs
# Neutrophil [12] = experiment: Induction of degranulation in mouse bone marrow derived neutrophil assessed as increase in BPI release at 25 to 100 ug/ml incubated for 6 hrs by ELISA; type: functional, cell-based; conditions: dose 25-100 µg/ml
# Staphylococcus aureus [13] = experiment: Antibacterial activity against Staphylococcus aureus ATCC 25923 infected in C57BL/6 mouse assessed as reduction in IL-1beta level in serum at 10 mg/kg,ip pre-administrated 5 hrs before bacterial infection measured after 24 hrs by ELISA; type: functional, organism-based; conditions: time 29.0 hrs
# Staphylococcus aureus [14] = experiment: Antimicrobial activity against Staphylococcus aureus ATCC 25923 assessed as reduction in metabolic activity at < 200 ug/ml incubated for 1 to 4 hrs by CCK-8 assay; type: functional, organism-based; conditions: dose < 200.0 µg/ml, time 1-4 hrs
# Staphylococcus aureus [15] = experiment: Antibacterial activity against Staphylococcus aureus ATCC 25923 infected in C57BL/6 mouse assessed as reduction in IL-6 level in peritoneal fluid at 10 mg/kg,ip pre-administrated 5 hrs before bacterial infection measured after 24 hrs by ELISA; type: functional, organism-based; conditions: time 29.0 hrs
# Neutrophil [16] = experiment: Induction of chemotaxis in mouse bone marrow derived neutrophil assessed as increase in neutrophil migration incubated for 8 hrs in presence of macrophage by crystal violet staining based indirect transwell assay; type: functional, cell-based
# Peritoneal macrophage [17] = experiment: Induction of chemotaxis in mouse Peritoneal macrophage assessed as upregulation of MCP-1 expression incubated for 6 hrs by ELISA; type: functional, cell-based
# Escherichia coli [18] = experiment: Antibacterial activity against Carbapenem-resistant Escherichia coli infected in C57BL/6 mouse assessed as reduction in IL-1beta level in peritoneal fluid at 10 mg/kg,ip pre-administrated 5 hrs before bacterial infection measured after 24 hrs by ELISA; type: functional, organism-based; conditions: time 29.0 hrs
# Acinetobacter junii = experiment: Antimicrobial activity against Acinetobacter junii ATCC 17908 assessed as inhibition of microbial growth at <= 200 ug/ml incubated for 18 hrs by micro-broth dilution method; type: functional, organism-based; conditions: dose <= 200.0 µg/ml
# Escherichia coli [19] = experiment: Antibacterial activity against Escherichia coli ATCC 25922 infected in C57BL/6 mouse assessed as reduction in IL-1beta level in serum at 10 mg/kg,ip administrated 5 hrs after bacterial infection measured after 24 hrs by ELISA; type: functional, organism-based; conditions: time 19.0 hrs
# Escherichia coli [20] = experiment: Antibacterial activity against Carbapenem-resistant Escherichia coli infected in C57BL/6 mouse assessed as increase in survival rate at 10 mg/kg,ip pre-administrated 5 hrs before bacterial infection measured after 7 days; type: functional, organism-based; conditions: time 7.0 day
# Staphylococcus aureus [21] = experiment: Antibacterial activity against Staphylococcus aureus ATCC 25923 infected in C57BL/6 mouse assessed as reduction in IL-6 level in serum at 10 mg/kg,ip pre-administrated 5 hrs before bacterial infection measured after 24 hrs by ELISA; type: functional, organism-based; conditions: time 29.0 hrs
# [22] = test system: Peritoneal macrophage cell; experiment: Induction of ROS production in mouse Peritoneal macrophage incubated for 6 hrs by DCFA-DA staining based flow cytometry; type: functional, cell-based
# Escherichia coli [23] = experiment: Antibacterial activity against Carbapenem-resistant Escherichia coli infected in C57BL/6 mouse assessed as reduction in IL-6 level in serum at 10 mg/kg,ip administrated 5 hrs after bacterial infection measured after 24 hrs by ELISA; type: functional, organism-based; conditions: time 19.0 hrs
# Staphylococcus aureus [24] = experiment: Antibacterial activity against Staphylococcus aureus ATCC 25923 infected in C57BL/6 mouse assessed as reduction in IL-6 level in peritoneal fluid at 10 mg/kg,ip administrated 5 hrs after bacterial infection measured after 24 hrs by ELISA; type: functional, organism-based; conditions: time 19.0 hrs
# Escherichia coli [25] = experiment: Antibacterial activity against Escherichia coli ATCC 25922 infected in C57BL/6 mouse assessed as reduction in IL-6 level in serum at 10 mg/kg,ip pre-administrated 5 hrs before bacterial infection measured after 24 hrs by ELISA; type: functional, organism-based; conditions: time 29.0 hrs
# Escherichia coli [26] = experiment: Antibacterial activity against Carbapenem-resistant Escherichia coli infected in C57BL/6 mouse assessed as reduction in TNF-alpha level in peritoneal fluid at 10 mg/kg,ip pre-administrated 5 hrs before bacterial infection measured after 24 hrs by ELISA; type: functional, organism-based; conditions: time 29.0 hrs
# Peritoneal macrophage [27] = experiment: Induction of chemotaxis in mouse Peritoneal macrophage assessed as upregulation of CXCL1 gene expression incubated for 6 hrs by qPCR analysis; type: functional, cell-based
# Staphylococcus aureus [28] = experiment: Antibacterial activity against Methicillin-resistant Staphylococcus aureus infected in C57BL/6 mouse assessed as reduction in inflammatory injury in lung at 10 mg/kg,ip pre-administrated 5 hrs before bacterial infection measured after 24 hrs by hematoxylin and eosin staining based analysis; type: functional, organism-based; conditions: time 29.0 hrs
# Peritoneal macrophage [29] = experiment: Immunoregulatory activity in mouse Peritoneal macrophage assessed as change in total ERK expression at 25 to 100 ug/ml incubated for 1 hr by Western blotting analysis; type: functional, cell-based; conditions: dose 25-100 µg/ml
smiles,measurement,setting,value
CC[C@H](C)[C@H](NC(=O)[C@@H]1CSSC[C@H](NC(=O)[C@H](CCC(=O)O)NC(=O)[C@@H](NC(=O)[C@H](CCCCN)NC(=O)[C@H](Cc2c[nH]cn2)NC(=O)[C@@H](NC(=O)[C@H](CCCCN)NC(=O)[C@H](CCC(=O)O)NC(=O)[C@H](C)NC(=O)[C@H](CCC(=O)O)NC(=O)[C@H](CCC(=O)O)NC(=O)[C@H](CCC(=O)O)NC(=O)[C@H](C)N)[C@@H](C)O)[C@@H](C)O)C(=O)N[C@@H](CC(C)C)C(=O)N[C@@H](CCC(=O)O)C(=O)N1)C(=O)N[C@@H](Cc1ccccc1)C(=O)N[C@H](C(=O)N[C@@H](CC(C)C)C(=O)N[C@@H](CC(C)C)C(=O)N1CCC[C@H]1C(=O)N1CCC[C@@H]1C(=O)N[C@H](C)C(=O)O)[C@@H](C)O,Activity,Mus musculus [1],Active
same,Activity,Staphylococcus aureus [2],Active
same,Activity,Staphylococcus aureus [3],inactive
same,Activity,Staphylococcus aureus [4],Active
same,Activity,Neutrophil [5],Active
same,Activity,Mus musculus [6],Active
same,Activity,[7],inactive
same,Activity,[8],inactive
same,Activity,Peritoneal macrophage [9],inactive
same,Activity,Staphylococcus aureus [10],Active
same,Activity,Escherichia coli [11],inactive
same,Activity,Neutrophil [12],Active
same,Activity,Staphylococcus aureus [13],Active
same,Activity,Staphylococcus aureus [14],inactive
same,Activity,Staphylococcus aureus [15],Active
same,Activity,Neutrophil [16],Dose-Dependent Effect
same,Activity,Peritoneal macrophage [17],Dose-Dependent Effect
same,Activity,Escherichia coli [18],Active
same,Activity,Acinetobacter junii,inactive
same,Activity,Escherichia coli [19],Active
same,Activity,Escherichia coli [20],Active
same,Activity,Staphylococcus aureus [21],Active
same,Activity,[22],Dose-Dependent Effect
same,Activity,Escherichia coli [23],Active
same,Activity,Staphylococcus aureus [24],Active
same,Activity,Escherichia coli [25],Active
same,Activity,Escherichia coli [26],Active
same,Activity,Peritoneal macrophage [27],Dose-Dependent Effect
same,Activity,Staphylococcus aureus [28],Active
same,Activity,Peritoneal macrophage [29],inactive
